Literature values as cited in US20180289421A1, “SYSTEMS AND METHODS FOR TREATING NAIL FUNGUS” (Terimber Corporation, priority 2017, published 2018).

What was measured:
[1] = systemic antifungal therapy
onychomycosis = conditions: oral, 12-week course

CCC(C)n1ncn(-c2ccc(N3CCN(c4ccc(OCC5COC(Cn6cncn6)(c6ccc(Cl)cc6Cl)O5)cc4)CC3)cc2)c1=O (stereo not shown) [Itraconazole]
cardiac toxicity [1]: may induce cardiac toxicity

CN(C/C=C/C#CC(C)(C)C)Cc1cccc2ccccc12 [terbinafine, [(2E)-6,6-dimethylhept-2-en-4-yn-1-yl](methyl)(naphthalen-1-ylmethyl)amine]
maximal clinical response rate (onychomycosis): 60%-70%
mycologic cure rate (onychomycosis): 71%-82%
liver toxicity [1]: can elevate liver enzymes and has progressed to fulminant liver failure
